Broadly, the Ki is a dissociation constant, usually derived from enzyme kinetics or from competition with a known ligand.

For this test, the target named is T1, Aromatic-L-amino-acid decarboxylase (Mus musculus, UniProt O88533).
T1 sequence (O88533 whole entry): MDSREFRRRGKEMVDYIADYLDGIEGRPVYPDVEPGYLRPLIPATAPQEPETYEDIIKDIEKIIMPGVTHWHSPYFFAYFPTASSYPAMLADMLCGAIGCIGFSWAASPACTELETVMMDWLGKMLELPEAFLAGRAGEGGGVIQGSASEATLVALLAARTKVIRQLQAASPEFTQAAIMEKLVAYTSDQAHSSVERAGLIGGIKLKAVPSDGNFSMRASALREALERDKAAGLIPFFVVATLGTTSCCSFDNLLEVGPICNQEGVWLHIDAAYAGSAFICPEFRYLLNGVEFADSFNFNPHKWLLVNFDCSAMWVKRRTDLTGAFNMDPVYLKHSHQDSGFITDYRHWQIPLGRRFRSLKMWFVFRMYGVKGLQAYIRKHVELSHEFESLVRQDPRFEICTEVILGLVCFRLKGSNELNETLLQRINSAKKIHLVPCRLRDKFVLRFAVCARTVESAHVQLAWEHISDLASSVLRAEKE
Briefly: Dissociation constant (KI) was evaluated as inhibitor of murine liver aromatic L-amino acid decarboxylase (AADC).

As to `N[C@@](CF)(Cc1c[nH]c2ccc(O)cc12)C(=O)O`, the Ki was 24.3 µM.
